The values below come from patent US20100311726A1, “REDUCTION OF BETA-AMYLOID LEVELS BY TREATMENT WITH THE SMALL MOLECULE DIFFERENTIATION-INDUCING FACTOR” (priority 2007, published 2010).

Entries after “also recorded” stand apart in the source; their conditions may differ.

The test system of experiment [1] is APP ubiquitin-conjugates. The experiment in a line: APP ubiquitin-conjugates by immunoprecipitation and western blot. The conditions noted are these: CHO-CAB. In general terms: A western blot detects proteins with antibodies after separation by electrophoresis.
Experimental: For immunoprecipitations, 1 mg of total protein was diluted with extraction buffer and precleared with protein G-conjugated agarose beads (Pierce). The precleared samples were incubated overnight with anti-APP antibodies or nonimmune IgG (Jackson Laboratories). Immunocomplexes were captured with Protein G agarose beads, washed five times with extraction buffer and heated for 5 min at 95° C. in SDS gel-loading buffer.
CHO-CAB cell protein extracts (1 mg) were immunoprecipitated using APP antibodies. The immunoprecipitated complexes were analyzed by western blotting using anti-ubiquitin antibodies. […] Molecular Weight markers (kDa) are shown on the left. GAPDH levels are shown below each blot. The data represents that of three separate experiments.
To determine whether the proteasome-mediated degradation of APP is accompanied by increased levels of poly-ubiquitinated APP, we investigated the ubiquitination status of APP in extracts of CHO-CAB cells treated in the absence or presence of DIF-1 (30 μM), lactacystin (10 μM), ALLN (10 μM), DIF-1+lactacystin and DIF-1+ALLN.
Experiment [2] has as its system APP. The experiment in a line: APP processing (mature APP, αCTF, βCTF) by western blot. The class given is cell-based, human. The protocol:
Total protein was collected in RIPA buffer plus protease inhibitors on ice and briefly sonicated. They lysate was centrifuged at 14,000 rpm for 15 minutes. […] After washing, the blots were probed with a polyclonal HRP-tagged secondary Ab (1:5000) for 1 hour at room temperature then visualized.
A second possibility is that DIF-1 potentiates the activity of y-secretase and processing of αCTFs and βCTFs. To assess this latter possibility, we examined the effect of DIF-1 in the presence of DAPT, a potent γ-secretase inhibitor. Even numbers of CHO-7W cells were plated in 6-well dishes and allowed to grow overnight. The next day, the media was removed and replaced with control media (2 ml) or media containing DAPT, DIF-1 or DAPT and DIF-1. […] After washing, blots were probed with HRP-conjugated secondary antibodies (1:5000) for 1 hour at room temperature. […] It would appear that the mechanism of DIF-1 on APP metabolism is not likely to involve γ-secretase activity, but might impact on either BACE1 levels or activity.
To evaluate this probability, we treated CHO-CAB cells that overexpress human APP^751 and human BACE1 with 30 μM of DIF-1. More specifically, even numbers of CHO-CAB cells were plated in 6-well dishes and allowed to grow overnight. The next day, the media was removed and replaced with control media (2 ml) or media containing DAPT, DIF-1 or DAPT and DIF-1. […] After washing, blots were probed with HRP-conjugated secondary antibodies (1:5000) for 1 hour at room temperature. Each treatment is shown above the blot. […] It would appear that DIF-1 has a greater effect on APP maturation in CHO-CAB cells. Longer exposures reveal the presence of mature APP bands in DIF-1 treated cells.
Next dose-dependent effects of DIF-1 on APP processing were examined. Even numbers of CHO-CAB cells were plated in 6-well dishes and allowed to grow overnight. The next day, cells were treated overnight with either vehicle or increasing concentrations of DIF-1 (5-30 μM).

Experiment [3] concerns APP phosphorylation on residue T668. The experiment in a line: APP T668 phosphorylation by western blot. As to conditions: CHO-7W and CHO-CAB; DAPT alone, or DAPT with DIF-1 (30 μM). The class given is cell-based, human. The procedure:
Next, whether or not DIF-1 treatment affected the degree of T668 phosphorylation was examined by western blot (FIG. 11). Briefly, effects of DIF-1 on APP T668 phosphorylation were compared between vehicle-treated control and 250 nM of DAPT identically in each cell line. Western analysis of 15 μg of total protein was probed overnight at 4° C. with anti-APP Cterminal antibody (C66-676-695) (1:5000) and then detected on film using ECL and HRP-conjugated secondary antibodies (1:5000). […] This band has also been detected in other CHO lines where APP expression is high (˜3 fold) and by different C-terminal APP antibodies (Ab8717-676-695; except 6E10 which recognizes the N-terminal residues 1-17 of the Aβ sequence. For FIG. 11A, cells were treated with DAPT, and DAPT+DIF then were probed with anti-APP antibody (C66). For FIG. 11B, CHO-7W cells were treated with DAPT, and DAPT+DIF, and then probed with polyclonal anti-P668 APP antibody (1:1000) overnight at 4° C. in 5% BSA. After washing, cells were probed with a rabbit HRP-conjugated secondary antibody (1:5000) in BSA for 1 hour at room temperature and signals were detected on film using ECL. FIG. 11C represents CHO-CAB cells and FIG. 11D represents H4 cells expressing APP^SW.

As for `CCCCCC(=O)c1c(O)c(Cl)c(OC)c(Cl)c1O` [DIF-1, 1-[3,5-dichloro-2,6-dihydroxy-4-methoxyphenyl]-1-hexanone], in experiment [1], the “APP ubiquitin conjugates, treatment with both lactacystin and DIF-1” value is “only slightly reduced”; the “APP ubiquitin-conjugates, co-treatment with ALLN” value is recorded as “prevented the accumulation APP ubiqutin-conjugates”. The “level of APP ubiquitin-conjugates (single agent)” value in experiment [1] (DIF-1 30 μM, lactacystin 10 μM, ALLN 10 μM) is on record as “decreased levels of APP ubiquitin-conjugates”. Also, the “APP maturation and αCTF and βCTF levels” value in experiment [2] (CHO-7W, 30 μM DIF-1 alone) was “significant decrease in APP maturation and both αCTF and βCTF production; also recorded: significant decreases in both αCTF and βCTF levels”. Further, in experiment [2] (CHO-7W, 30 μM DIF-1 plus 250 nM DAPT), the “αCTF and βCTF levels, simultaneous treatment with DAPT” value is reported as “increased, but not to the level seen with DAPT alone”. Moreover, in experiment [2] (CHO-CAB, 30 μM), the “effect on APP metabolism with BACE1 overexpression” value is “did not repress the effects of DIF-1 on APP metabolism”. Moreover, the “dose dependence of αCTF and βCTF reduction” value in experiment [2] (CHO-CAB, 5-30 μM) is “reduced both αCTFs and βCTFs in a dose-dependent manner”. Besides, the “concentration required to have an effect on mature APP levels” value in experiment [2] (CHO-CAB, 5-30 μM overnight) is around 20 µM. The “amount of T668 phosphorylated APP CTFs” value in experiment [3] was “large reduction in the amount of T668 phosphorylated APP CTFs”.
